From patent US12662451B2, “Chemical compounds and uses thereof” (GLAXOSMITHKLINE INTELLECTUAL PROPERTY (NO.4) LIMITED, priority 2023, dated 2026)
Where two headings read alike, the source gives them in different places.

Experiments:
[1] = biological target: T1, recombinant full-length WRN protein (1-1432) (Homo sapiens, UniProt Q14191); assay: WRN unwinding activity, fluorogenic 384-well assay (Example A); assay type: biochemical; conditions: WRN unwinding activity, Table 2; for IC50: 4 hr, read-out: 4 hr UNW pIC50 (converted)
T1 construct: recombinant full-length WRN protein (1-1432)
Procedure, shortened: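 200 pM enzyme (2× stock) preincubated with compound 4 h at ambient temperature, then 200 μM ATP and 12 nM quenched TAMRA-labelled dsDNA (2× stocks) added for 60 min; EDTA-quenched. Buffer 25 mM Tris pH 8.0, 5 mM NaCl, 2 mM MgCl2. Fluorescence at 525/598 nm; pIC50 from four-parameter fit.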

[2] = Cell culture media unbound percentage and stability by rapid equilibrium dialysis (Example C); assay type: in vitro ADME; conditions: bovine, cell assay medium (RPMI-1640 with 10% fetal bovine serum), pH 7.4, rapid equilibrium dialysis, 4 hours at 37° C., read-out: Cell Culture Media Binding (% unbound)
Experimental: (§1) It was observed that the compounds of the present disclosure are bound to cell assay media to various degrees, which would affect the cellular potency analysis in Example B. To measure free drug potency, concentrations used in the cell assays were corrected with the measured free fraction determined in the cell assay media. Compounds were incubated in a rapid equilibrium dialysis (RED) at a nominal concentration of 1 μM, using a dialysis buffer of phosphate-buffered saline (PBS, 100 mM sodium phosphate+150 mM sodium chloride, pH 7.4). The test compound was spiked into the medium. Aliquots were added to the donor wells of a RED plate in triplicate, and blank PBS was added to each receiver well, at volumes recommended by the manufacturer. Plates were incubated with shaking at 200 rpm for 4 hours at 37° C. The resultant samples were analysed by LC-MS/MS using a specific and sensitive method. Results were reported as analyte:internal standard peak area ratios (PARs), and the percent unbound was calculated with the following equation:
[formula] where D=the matrix dilution factor (D=1 for media); Apparent Fu=Crec/Cdon; Crec=PAR in receiver samples; Cdon=PAR in donor samples. Percent stability was calculated by:
(§2) [formula] where Cfinal=PAR in the T=240 minute sample; Cinitial=PAR in the T=0 minute sample. Cell culture media unbound percentage and calculated free drug potency of selected compounds along with their measured potency from Example B are shown in Table 3.

[3] = test system: SW48 human colorectal cancer cells (MSI-H cancer cells); assay: SW48 cell viability, CellTiter-Glo, 120 hours (Example B); conditions: for CC50: Homo sapiens
[4] = test system: SW48 human colorectal cancer cells; assay: Calculated free drug potency in SW48 cell assay, corrected with media free fraction (Example C); assay type: cell-based; conditions: for CC50: Homo sapiens, SW48, SW48 pCC50 corrected with measured free fraction in cell assay media; for Free Drug SW48 pCC50: SW48 pCC50 corrected with measured free fraction in cell assay media
Experimental: as §1, §2

[5] = SW48, 120 h, read-out: SW48 pCC50, SW48 cell viability, 120 hours incubation (converted), Table 2
[6] = SW48, read-out: SW48 pCC50, measured potency from Example B, as repeated in Table 3 (converted)
[7] = SW48 cell viability, 120 hours incubation, Table 2
[8] = measured potency from Example B, as repeated in Table 3

T1 sequence (Q14191 whole entry): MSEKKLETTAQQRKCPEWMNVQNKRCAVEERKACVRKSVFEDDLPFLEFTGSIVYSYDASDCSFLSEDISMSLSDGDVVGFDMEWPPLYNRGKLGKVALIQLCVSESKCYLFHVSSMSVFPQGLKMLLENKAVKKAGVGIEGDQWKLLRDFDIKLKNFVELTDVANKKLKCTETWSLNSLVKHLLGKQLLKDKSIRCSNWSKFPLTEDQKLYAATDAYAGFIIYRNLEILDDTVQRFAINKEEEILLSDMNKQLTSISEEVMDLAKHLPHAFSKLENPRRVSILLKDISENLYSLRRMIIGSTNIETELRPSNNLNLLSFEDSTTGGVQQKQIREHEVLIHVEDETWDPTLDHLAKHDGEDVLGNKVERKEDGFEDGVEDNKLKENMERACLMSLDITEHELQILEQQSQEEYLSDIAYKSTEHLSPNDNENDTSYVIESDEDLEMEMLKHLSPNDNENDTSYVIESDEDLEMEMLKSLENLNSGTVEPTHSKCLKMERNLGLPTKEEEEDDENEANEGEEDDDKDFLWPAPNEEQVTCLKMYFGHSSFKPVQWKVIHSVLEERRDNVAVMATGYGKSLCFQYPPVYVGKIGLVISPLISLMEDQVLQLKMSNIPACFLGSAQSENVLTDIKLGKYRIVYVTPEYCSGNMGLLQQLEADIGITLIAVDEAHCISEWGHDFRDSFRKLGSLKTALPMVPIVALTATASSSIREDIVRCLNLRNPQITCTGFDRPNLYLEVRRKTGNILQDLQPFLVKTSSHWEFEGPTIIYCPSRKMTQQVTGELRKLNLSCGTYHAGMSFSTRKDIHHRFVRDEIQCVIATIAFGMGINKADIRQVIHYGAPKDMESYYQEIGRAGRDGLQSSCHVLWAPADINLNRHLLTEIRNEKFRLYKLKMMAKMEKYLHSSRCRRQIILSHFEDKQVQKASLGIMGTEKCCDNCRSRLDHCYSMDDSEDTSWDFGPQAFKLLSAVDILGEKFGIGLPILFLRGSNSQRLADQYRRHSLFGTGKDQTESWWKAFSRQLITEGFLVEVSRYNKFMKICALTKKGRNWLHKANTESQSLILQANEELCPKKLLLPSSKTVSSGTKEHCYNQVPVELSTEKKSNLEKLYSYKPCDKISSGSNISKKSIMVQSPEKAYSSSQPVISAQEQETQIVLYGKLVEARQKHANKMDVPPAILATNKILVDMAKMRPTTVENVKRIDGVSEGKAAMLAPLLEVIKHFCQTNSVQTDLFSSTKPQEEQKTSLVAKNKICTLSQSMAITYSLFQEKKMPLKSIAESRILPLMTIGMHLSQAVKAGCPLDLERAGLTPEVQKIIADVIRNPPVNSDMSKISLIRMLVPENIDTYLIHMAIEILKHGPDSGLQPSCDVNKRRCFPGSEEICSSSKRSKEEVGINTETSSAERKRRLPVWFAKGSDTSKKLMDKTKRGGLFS

COc1cccc(S(=O)(=O)N(C)c2ccc([C@H]3CCC[C@@H](C(=O)Nc4ccc(C(F)(F)F)cc4F)[C@@H]3C(=O)O)cc2)c1 (racemic) [Example 82]
IC50 [1]: 5.01 nM
fraction unbound at 4 h, 1 µM [2]: 0.0147
CC50 [3, 5]: 5010 nM
CC50 [3, 6]: 5010 nM
CC50 [4]: 74.1 nM

CO[C@@H]1C[C@H](C(=O)Nc2ccc(C(F)(F)F)cc2F)[C@@H](C(=O)O)[C@H](c2ccc(N(C)S(=O)(=O)c3ccc4c(c3)nc(C)n4C)cc2)C1 (relative stereo) [Example 148, rel-(1R,2R,4R,6S)-2-((2-fluoro-4-(trifluoromethyl)phenyl)carbamoyl)-4-methoxy-6-(4-((N,1,2-trimethyl-1H-benzo[d]imidazole)-5-sulfonamido)phenyl)cyclohexane-1-carboxylic acid]
IC50 [1]: 1.26 nM
fraction unbound at 4 h, 1 µM [2]: 0.129
CC50 [3, 5]: 200 nM
CC50 [3, 6]: 200 nM
CC50 [4]: 25.7 nM

Cc1nc2cc(S(=O)(=O)N(C)c3ccc([C@H]4C[C@@H](OCC(F)F)C[C@@H](C(=O)Nc5ccc(C(F)(F)F)cc5F)[C@@H]4C(=O)O)cc3)ccc2n1C (relative stereo) [Example 159, rel-(1R,2R,4R,6S)-4-(2,2-difluoroethoxy)-2-((2-fluoro-4-(trifluoromethyl)phenyl)carbamoyl)-6-(4-((N,1,2-trimethyl-1H-benzo[d]imidazole)-5-sulfonamido)phenyl)cyclohexane-1-carboxylic acid]
IC50 [1]: 2.51 nM
fraction unbound at 4 h, 1 µM [2]: 0.0991
CC50 [3, 5]: 200 nM
CC50 [3, 6]: 200 nM
CC50 [4]: 20 nM

Cc1nc2cc(S(=O)(=O)N(C)c3ccc([C@H]4CCC[C@@H](C(=O)Nc5ccc(C(F)(F)F)cc5F)[C@@H]4C(=O)O)nc3)ccc2n1C (relative stereo) [Example 161, rel-(1R,2R,6S)-2-((2-fluoro-4-(trifluoromethyl)phenyl)carbamoyl)-6-(5-((N,1,2-trimethyl-1H-benzo[d]imidazole)-5-sulfonamido)pyridin-2-yl)cyclohexane-1-carboxylic acid]
IC50 [1]: 2.51 nM
fraction unbound at 4 h, 1 µM [2]: 0.0481
CC50 [3, 5]: 794 nM
CC50 [3, 6]: 794 nM
CC50 [4]: 38 nM

Cc1nc2cc(S(=O)(=O)N(C)c3ccc([C@H]4CCC[C@@H](C(=O)Nc5ccc(C(F)(F)F)cc5F)[C@@H]4C(=O)O)cc3)cc(C3CCCN(C)C3)c2n1C (relative stereo) [Example 270, (1R,2R,6S)-2-((2-fluoro-4-(trifluoromethyl)phenyl)carbamoyl)-6-(4-((N,1,2-trimethyl-7-((S*)-1-methylpiperidin-3-yl)-1H-benzo[d]imidazole)-5-sulfonamido)phenyl)cyclohexane-1-carboxylic acid]
4 hr UNW pIC50 [1]: 9.0
SW48 pCC50 [3, 7]: 6.5
SW48 pCC50 [3, 8]: 6.5
Free Drug SW48 pCC50 [4]: 7.18

Cc1nc2cc(S(=O)(=O)N(C)c3ccc([C@H]4C[C@H](N5CCC(F)(F)CC5)C[C@@H](C(=O)Nc5ccc(C(F)(F)F)cc5F)[C@@H]4C(=O)O)cc3)ccc2n1C (relative stereo) [Example 342, rel-(1R,2R,4S,6S)-4-(4,4-difluoropiperidin-1-yl)-2-((2-fluoro-4-(trifluoromethyl)phenyl)carbamoyl)-6-(4-((N,1,2-trimethyl-1H-benzo[d]imidazole)-5-sulfonamido)phenyl)cyclohexane-1-carboxylic acid]
fraction unbound at 4 h, 1 µM [2]: 0.0623
CC50 [3, 5]: 6310 nM
CC50 [3, 6]: 6310 nM
CC50 [4]: 389 nM

Cc1nc2cc(S(=O)(=O)N(C)c3ccc([C@H]4C[C@@H]5OCC[C@@H]5[C@@H](C(=O)Nc5ccc(C(F)(F)F)cc5F)[C@@H]4C(=O)O)cc3)ccc2n1C (single isomer, unassigned) [Example 158]
IC50 [1]: 31.6 nM
SW48 pCC50 [3, 7]: 5.4
SW48 pCC50 [3, 8]: 5.4
Free Drug SW48 pCC50 [4]: 6.03

Cc1nc2cc(S(=O)(=O)N(C)c3ccc([C@H]4C[C@@H](N5CCOCC5)C[C@@H](C(=O)Nc5ccc(C(F)(F)F)cc5F)[C@@H]4C(=O)O)cc3)ccc2n1C (single isomer, unassigned) [Example 340]
IC50 [1]: 7.94 nM
SW48 pCC50 [3, 7]: 5.1
SW48 pCC50 [3, 8]: 5.1
Free Drug SW48 pCC50 [4]: 5.99

Cc1nc2cc(S(=O)(=O)N(C)c3ccc([C@H]4C[C@@H](N5CCC[C@@H](F)C5)C[C@@H](C(=O)Nc5ccc(C(F)(F)F)cc5F)[C@@H]4C(=O)O)cc3)ccc2n1C (single isomer, unassigned) [Example 347, rel-(1R*,2R*,4S*,6S*)-2-((2-fluoro-4-(trifluoromethyl)phenyl)carbamoyl)-4-((R)-3-fluoropiperidin-1-yl)-6-(4-((N,1,2-trimethyl-1H-benzo[d]imidazole)-5-sulfonamido)phenyl)cyclohexane-1-carboxylic acid]
IC50 [1]: 10 nM
SW48 pCC50 [3, 7]: 5.2
SW48 pCC50 [3, 8]: 5.2
Free Drug SW48 pCC50 [4]: 6.17

Cc1nc2cc(S(=O)(=O)N(C)c3ccc([C@H]4C[C@@H](N5CCC[C@@H](F)C5)C[C@@H](C(=O)Nc5ccc(C(F)(F)F)cc5F)[C@@H]4C(=O)O)cc3)ccc2n1C (single isomer, unassigned) [Example 376, rel-(1R*,2R*,4R*,6S*)-2-((2-fluoro-4-(trifluoromethyl)phenyl)carbamoyl)-4-((R)-3-fluoropiperidin-1-yl)-6-(4-((N,1,2-trimethyl-1H-benzo[d]imidazole)-5-sulfonamido)phenyl)cyclohexane-1-carboxylic acid]
IC50 [1]: 2.51 nM
SW48 pCC50 [3, 7]: 7.1
SW48 pCC50 [3, 8]: 7.1
Free Drug SW48 pCC50 [4]: 7.70

Cc1nc2cc(S(=O)(=O)N(C)c3ccc([C@@H]4C[C@@H]5COC[C@@H]5[C@@H](C(=O)Nc5ccc(C(F)(F)F)cc5F)[C@@H]4C(=O)O)cc3)ccc2n1C (single isomer, unassigned) [Example 390]
IC50 [1]: 6.31 nM
SW48 pCC50 [3, 7]: 5.7
SW48 pCC50 [3, 8]: 5.7
Free Drug SW48 pCC50 [4]: 6.49

Cc1nc2cc(S(=O)(=O)N(C)c3ccc([C@H]4C[C@@H](O[C@H]5CCOC5)C[C@@H](C(=O)Nc5ccc(C(F)(F)F)cc5F)[C@@H]4C(=O)O)cc3)ccc2n1C (stereo in doubt) [Example 324, (1R*,2R*,4R*,6S*)-2-((2-fluoro-4-(trifluoromethyl)phenyl)carbamoyl)-4-(((S)-tetrahydrofuran-3-yl)oxy)-6-(4-((N,1,2-trimethyl-1H-benzo[d]imidazole)-5-sulfonamido)phenyl)cyclohexane-1-carboxylic acid]
4 hr UNW pIC50 [1]: 7.2
SW48 pCC50 [3, 7]: 5.1
SW48 pCC50 [3, 8]: 5.1
Free Drug SW48 pCC50 [4]: 5.60

CN(c1ccc([C@H]2CCC[C@@H](C(=O)Nc3ccc(C(F)(F)F)cc3F)[C@@H]2C(=O)O)cc1)S(=O)(=O)c1ccc(-c2ccn(C)n2)cc1 [Example 99, (1R,2R,6S)-2-((2-fluoro-4-(trifluoromethyl)phenyl)carbamoyl)-6-(4-((N-methyl-4-(1-methyl-1H-pyrazol-3-yl)phenyl)sulfonamido)phenyl)cyclohexane-1-carboxylic acid]
4 hr UNW pIC50 [1]: 8.6
SW48 pCC50 [3, 7]: 6.1
SW48 pCC50 [3, 8]: 6.1
Free Drug SW48 pCC50 [4]: 7.77

CN(c1ccc([C@H]2CCC[C@@H](C(=O)Nc3ccc(C(F)(F)F)cc3F)[C@@H]2C(=O)O)cc1)S(=O)(=O)c1cc(I)c2occc2c1 [Example 117, (1R,2R,6S)-2-((2-fluoro-4-(trifluoromethyl)phenyl)carbamoyl)-6-(4-((7-iodo-N-methylbenzofuran)-5-sulfonamido)phenyl)cyclohexane-1-carboxylic acid]
IC50 [1]: 63.1 nM
CC50 [3, 5]: 3980 nM
SW48 pCC50 [3, 8]: 5.4
Free Drug SW48 pCC50 [4]: 8.36
